The values below come from publication PMC3906128 (Addiction biology, 2011).

Counter-ions that a name gives are not always drawn. Like-named read-outs stand apart in the source and are kept apart here.

In data set [1] the target is T1, DOP-R1 (Rattus norvegicus, UniProt P33533). The data set can be described thus: Inhibition of TAN67-. Type of data set: biochemical.
The target of the next data set is DOP-R2 (Rattus norvegicus, UniProt P33533). The data set can be described thus: Deltorphin II-stimulated [35S]GTPγS binding in rat midbrain membranes. Type of data set: biochemical. The following applies: Mean (± SEM) EC50 for Midbrain Opioid Stimulation, ethanol-trained rats. For orientation: Binding of GTPγS marks nucleotide exchange on a G protein.
DOP-R2, sequence (P33533 whole entry): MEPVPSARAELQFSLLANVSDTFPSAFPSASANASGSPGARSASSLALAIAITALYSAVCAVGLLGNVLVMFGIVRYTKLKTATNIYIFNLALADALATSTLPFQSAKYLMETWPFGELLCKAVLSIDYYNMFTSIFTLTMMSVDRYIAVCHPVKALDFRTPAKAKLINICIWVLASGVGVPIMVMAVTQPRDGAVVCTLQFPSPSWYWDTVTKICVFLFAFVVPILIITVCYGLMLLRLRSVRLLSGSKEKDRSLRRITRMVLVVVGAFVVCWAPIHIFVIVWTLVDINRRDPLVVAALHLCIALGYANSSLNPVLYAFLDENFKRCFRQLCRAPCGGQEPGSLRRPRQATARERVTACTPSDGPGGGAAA
The next data set has as its system corticosterone (CORT). In words: Plasma corticosterone measurement. Format: in vivo, rat. The following applies: SoRI-9409 5 mg/kg I.P. prior to yohimbine 2 mg/kg I.P.; P > 0.05.
For data set [2], the system named is DOP-R. The note with it: ref Ananthan et al., 1999, cited from earlier work.
For data set [3], the system named is MOP-R. The note with it: ref Ananthan et al., 1999, cited from earlier work.
Data set [4] has as its system rats. The note with it: elevated plus maze test in rats; ref Nielsen et al., 2008; cited from earlier work.
Data set [5] concerns MOP-R. The note with it: in vitro, ref Wells et al., 2001, Xu et al.; cited from earlier work.
Data set [6] relates to DOP-R. The following applies: in vitro, ref Wells et al., 2001, Xu et al.; cited from earlier work.
A further data set concerns KOP-R. The following applies: in vitro, ref Wells et al., 2001, Xu et al.; cited from earlier work.
The test system of data set [7] is rats. The following applies: 5 mg/kg I.P., ref Nielsen et al., 2008; cited from earlier work.
In data set [8] the test system is DOP-R. The following applies: brain membranes of high-ethanol consuming rats; ref Nielsen et al., 2008; cited from earlier work.
The test system of a further data set is Long-Evans rats. The data set can be described thus: Yohimbine stress-induced reinstatement of 10% ethanol seeking.
The target in data set [9] is T1, DOP-R1. The data set can be described thus: TAN67-stimulated [35S]GTPγS binding in rat brain membranes. Type of data set: biochemical. The following applies: for EC50: ethanol-trained rats.
[10] abbreviates: read-out: IC50, inhibition of TAN67-stimulated (10 μmol/L) [35S]GTPγS-binding, midbrain membranes, ethanol-trained rats given SoRI-9409-vehicle prior to yohimbine (2 mg/kg I.P.).

T1 sequence (P33533 whole entry): as above

For the molecule `O=C1/C(=C/c2ccccc2)C[C@@]2(O)[C@H]3Cc4ccc(O)c5c4[C@@]2(CCN3CC2CC2)[C@H]1O5` [BNTX, 7-benzylidenenaltrexone maleate salt hydrate], the IC50 at DOP-R1 [1] (setting [10]) is 37 ± 4.8 nM.
Usually EC50 stands for the concentration that produces a half-maximal response. For the molecule `CC(C)[C@H](NC(=O)[C@H](CCC(=O)O)NC(=O)[C@H](Cc1ccccc1)NC(=O)[C@@H](C)NC(=O)[C@@H](N)Cc1ccc(O)cc1)C(=O)N[C@H](C(=O)NCC(N)=O)C(C)C` [Deltorphin II, [D-Ala^2]-Deltorphin II], the EC50 at DOP-R2 (SoRI-9409 (5 mg/kg I.P.)/Yohimbine (2 mg/kg I.P.)) is 22 ± 4 µM; on DOP-R2 (SoRI-9409 (5 mg/kg I.P.)/Yohimbine-vehicle), > 100 µM; at DOP-R2 (SoRI-9409-vehicle/Yohimbine (2 mg/kg I.P.)), 27 ± 2.9 µM; at DOP-R2 (SoRI-9409-vehicle/Yohimbine-vehicle), > 100 µM.
A word on the Ki: it is the dissociation constant of the complex between target and ligand, obtained from inhibition or displacement. Take `Oc1ccc2c3c1O[C@H]1c4ncc(-c5ccc(Cl)cc5)cc4C[C@@]4(O)[C@@H](C2)N(CC2CC2)CC[C@]314` [SoRI-9409, 5′-(4-Chlorophenyl)-17-(cyclopropylmethyl)-6,7-didehydro-3,14-dihydroxy-4,5-alpha-epoxypyrido[2′,3′:6,7] morphinan]: the IC50 on DOP-R1 [1] (setting [10]) amounted to 22 ± 3.5 nM. For the same molecule, the “Plasma CORT levels of SoRI-9409/yohimbine treated rats vs SoRI-9409-vehicle/yohimbine treated rats” value with corticosterone (CORT) is reported as “not different”. For the same molecule, in the data set on DOP-R [2] (compared to naltrexone), the “higher binding affinity at the DOP-R in comparison to naltrexone” value is reported as “approximately 20 fold”. In addition, the inhibition constant Ki was 2.2 ± 0.2 nM at DOP-R [2] (read-out: Ki, binding affinity at the DOP-R) and 51 ± 8 nM on MOP-R [3] (read-out: Ki, binding affinity for the MOP-R). In the data set with MOP-R [3] (compared to naltrexone), the “reduced binding affinity for the MOP-R in comparison to naltrexone” value is “approximately 20 fold”. Besides, the “anxiogenic or anxiolytic effects” value in the data set on rats [4] is on record as “does not produce anxiogenic or anxiolytic effects”. For the same molecule, the “agonist activity at MOP-R” value with MOP-R [5] is “no agonist activity”. In the data set on MOP-R [5], the “antagonist activity at the MOP-R” value is reported as “weak antagonist activity”. Further, the “agonist activity at DOP-R” value in the data set with DOP-R [6] is “no agonist activity”. Also, the “antagonist activity at the DOP-R” value in the data set on DOP-R [6] is on record as “potent antagonist activity”. Moreover, in the data set on KOP-R, the “agonist activity at KOP-R” value is listed as “no agonist activity”. Besides, the “antagonist activity at the KOP-R” value in the data set on KOP-R is “weak antagonist activity”. In addition, the “effect on ethanol consumption” value with rats [7] is “selective and long-lasting reductions in ethanol consumption”. The “inhibition of DOP-R-mediated [35S]GTPγS binding” value with DOP-R [8] is recorded as “potently inhibits”. Also, the Inactive lever presses was 0.8 ± 0.4 in the data set on Long-Evans rats (SoRI-9409 1 mg/kg, Vehicle group (yohimbine-vehicle)); 1.7 ± 0.5 in the data set on Long-Evans rats (SoRI-9409 1 mg/kg, Yohimbine group (2 mg/kg I.P.)); 0.3 ± 0.3 with Long-Evans rats (SoRI-9409 2.5 mg/kg, Vehicle group (yohimbine-vehicle)); 1.0 ± 0.4 with Long-Evans rats (SoRI-9409 2.5 mg/kg, Yohimbine group (2 mg/kg I.P.)); 0.2 ± 0.1 with Long-Evans rats (SoRI-9409 5 mg/kg, Vehicle group (yohimbine-vehicle)); 0.6 ± 0.4 with Long-Evans rats (SoRI-9409 5 mg/kg, Yohimbine group (2 mg/kg I.P.)). Moreover, in the data set with Long-Evans rats (SoRI-9409 1-5 mg/kg I.P., yohimbine-vehicle only, P > 0.05), the “effect on responding in rats which did not receive yohimbine” value is on record as “did not affect responding”.
In the case of `Br.Br.CN1CC[C@]2(c3cccc(O)c3)Cc3nc4ccccc4cc3C[C@H]2C1` [TAN67, SB 205607 dihydrobromide], the “higher TAN67-mediated DOP-R1 activity in yohimbine-treated rats compared to vehicle-treated rats” value at DOP-R1 [9] (midbrain membranes, from Table 2 EC50 values) is listed as > 700 fold. The EC50 was 5.2 ± 0.3 µM on DOP-R1 [9] (read-out: Mean (± SEM) EC50 for Midbrain Opioid Stimulation, midbrain membranes, SoRI-9409 (5 mg/kg I.P.)/Yohimbine (2 mg/kg I.P.)); > 100 µM at DOP-R1 [9] (read-out: Mean (± SEM) EC50 for Midbrain Opioid Stimulation, midbrain membranes, SoRI-9409 (5 mg/kg I.P.)/Yohimbine-vehicle); 0.14 ± 0.04 µM on DOP-R1 [9] (read-out: Mean (± SEM) EC50 for Midbrain Opioid Stimulation, midbrain membranes, SoRI-9409-vehicle/Yohimbine (2 mg/kg I.P.)); > 100 µM on DOP-R1 [9] (read-out: Mean (± SEM) EC50 for Midbrain Opioid Stimulation, midbrain membranes, SoRI-9409-vehicle/Yohimbine-vehicle); > 100 µM on DOP-R1 [9] (read-out: Mean (± SEM) EC50 for TAN67 Stimulation, Striatum, striatal membranes, SoRI-9409 (5 mg/kg I.P.)/Yohimbine (2 mg/kg I.P.)); > 100 µM at DOP-R1 [9] (read-out: Mean (± SEM) EC50 for TAN67 Stimulation, Striatum, striatal membranes, SoRI-9409 (5 mg/kg I.P.)/Yohimbine-vehicle). Besides, the EC50 on DOP-R1 [9] (read-out: Mean (± SEM) EC50 for TAN67 Stimulation, Striatum, striatal membranes, SoRI-9409-vehicle/Yohimbine (2 mg/kg I.P.)) is > 100 µM; on DOP-R1 [9] (read-out: Mean (± SEM) EC50 for TAN67 Stimulation, Striatum, striatal membranes, SoRI-9409-vehicle/Yohimbine-vehicle), > 100 µM.
Regarding `COC(=O)[C@@H]1[C@H]2C[C@H]3c4[nH]c5ccccc5c4CCN3C[C@@H]2CC[C@@H]1O` [Yohimbine, reference compound], the “active lever presses (30 min)” value in the data set on Long-Evans rats (SoRI-9409-vehicle prior to yohimbine 2 mg/kg I.P., ethanol-extinguished rats, vehicle/vehicle 10.9 ± 1.8) is listed as 48.0 ± 7.0 presses. The molecule also returned an Inactive lever presses with Long-Evans rats (SoRI-9409-vehicle, Yohimbine group (2 mg/kg I.P.)) of 2.1 ± 0.7.
On to `Oc1ccc2c3c1O[C@H]1c4[nH]c5ccccc5c4C[C@@]4(O)[C@@H](C2)N(CC2CC2)CC[C@]314` [naltrindole, naltrindole hydrochloride], for which the IC50 at DOP-R1 [1] was found to be 46 ± 3.8 nM.
